# According to US20260210939A1, “MODIFIED OLFACTORY RECEPTORS” (GIVAUDAN SA, priority 2022, published 2026):
# Marks after values point to notes of the source that are not given here.
# Columns and labels:
# Assay type in all cases: cell-based
# [1] = biological target: T1, OR1N2 (Homo sapiens, UniProt Q8NGR9, T287M/V230G/W23R); assay: CRE-luciferase assay, HEK293T cells expressing OR1N2 (wild-type / modified C-terminus)
# T1 construct: Improved functional expression of modified OR-genes containing the truncated, optimized C-terminus; expressed in transfected cells; host or cells: HEK293T stably expressing human RTP1S(V227I) and RTP2(L220R)
# T1 sequence (Q8NGR9 with tags, fused parts or gaps W23R/V230G/T287M): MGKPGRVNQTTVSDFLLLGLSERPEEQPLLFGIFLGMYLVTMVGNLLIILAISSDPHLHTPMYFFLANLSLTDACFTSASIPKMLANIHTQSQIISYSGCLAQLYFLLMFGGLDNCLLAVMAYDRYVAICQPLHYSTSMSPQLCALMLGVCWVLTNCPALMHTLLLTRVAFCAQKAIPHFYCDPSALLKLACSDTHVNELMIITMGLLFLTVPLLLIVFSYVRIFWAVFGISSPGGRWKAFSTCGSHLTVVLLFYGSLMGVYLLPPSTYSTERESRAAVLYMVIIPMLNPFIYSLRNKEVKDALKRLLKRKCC
# [2] = biological target: T2, OR5A1 (Homo sapiens, UniProt Q8NGJ0, I300V); assay: CRE-luciferase assay, HEK293T cells expressing OR5A1 (wild-type / modified C-terminus)
# T2 construct: Improved functional expression of modified OR-genes containing the truncated, optimized C-terminus; expressed in transfected cells; host or cells: HEK293T stably expressing human RTP1S(V227I) and RTP2(L220R)
# T2 sequence (Q8NGJ0 with tags, fused parts or gaps I300V): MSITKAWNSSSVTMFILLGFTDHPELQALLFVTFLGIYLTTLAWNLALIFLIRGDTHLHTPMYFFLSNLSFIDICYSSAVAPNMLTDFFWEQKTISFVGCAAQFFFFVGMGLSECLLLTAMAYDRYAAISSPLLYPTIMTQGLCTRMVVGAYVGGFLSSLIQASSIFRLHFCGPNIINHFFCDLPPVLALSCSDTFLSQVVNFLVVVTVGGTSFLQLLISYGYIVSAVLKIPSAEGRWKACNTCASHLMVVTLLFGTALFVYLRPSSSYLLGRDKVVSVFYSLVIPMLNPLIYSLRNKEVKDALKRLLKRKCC
# [3] = biological target: T3, OR10H5 (Homo sapiens, UniProt Q8NGA6); assay: CRE-luciferase assay, HEK293T cells expressing OR10H5 (wild-type / modified C-terminus)
# T3 construct: Improved functional expression of modified OR-genes containing the truncated, optimized C-terminus; expressed in transfected cells; host or cells: HEK293T stably expressing human RTP1S(V227I) and RTP2(L220R)
# T3 sequence (Q8NGA6 with tags, fused parts or gaps): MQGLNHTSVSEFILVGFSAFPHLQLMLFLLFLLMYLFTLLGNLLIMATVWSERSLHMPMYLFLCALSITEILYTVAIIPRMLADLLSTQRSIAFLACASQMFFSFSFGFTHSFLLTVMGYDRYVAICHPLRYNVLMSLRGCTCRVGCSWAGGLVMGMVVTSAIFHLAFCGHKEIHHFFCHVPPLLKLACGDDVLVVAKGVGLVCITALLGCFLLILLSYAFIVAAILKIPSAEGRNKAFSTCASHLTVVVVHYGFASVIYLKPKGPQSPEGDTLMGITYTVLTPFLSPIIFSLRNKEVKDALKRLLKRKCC
# Source text: All tested receptors of Table 1 gave improved functional expression when the wild-type C-terminal domain was replaced with SEQ ID NO: 86. This functional expression was further improved when SEQ ID NO:86 was replaced with SEQ ID NO: 221 as shown for OR7C1 in Table 8 and for OR5B12 in Table 9. This additive improvement was further tested with OR10H5 (Table 18) and OR7A17 (Table 19). […] The full DNA sequences encoding the modified receptors are SEQ ID NO: 684 for OR10H5 and SEQ ID NO: 611 for OR7A17.
# [4] = biological target: T4, OR10J1(M51I, I92M) (Homo sapiens, UniProt P30954, I103M/M62I); assay: Dose-response test of single lactones on OR10J1(M51I, I92M)
# T4 construct: expressed in transfected cells; transient transfection of pcDNA3.1(+) OR plasmid
# T4 sequence (P30954 with tags, fused parts or gaps M62I/I103M): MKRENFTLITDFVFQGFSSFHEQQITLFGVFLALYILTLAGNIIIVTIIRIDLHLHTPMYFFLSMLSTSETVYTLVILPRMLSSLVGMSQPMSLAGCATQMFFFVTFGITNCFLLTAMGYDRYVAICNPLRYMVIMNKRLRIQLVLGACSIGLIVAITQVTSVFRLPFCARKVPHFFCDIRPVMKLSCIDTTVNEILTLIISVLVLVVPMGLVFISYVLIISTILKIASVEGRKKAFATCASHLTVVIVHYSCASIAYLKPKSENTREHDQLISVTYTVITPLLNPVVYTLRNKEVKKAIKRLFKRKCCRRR
# Procedure: (§1) In a subsequent de-convultion experiment, the single ingredients were tested in a dose-response test on all the identified OR. […] Thus, OR2AP1 and OR2J2 are particularly strongly activated by the long-chain dodecalactone gamma, while OR10A3 is very sensitive to several longer chain lactones. […] Among the five OR, OR10A3 is the most sensitive.
# [5] = biological target: T5, OR10A3 (Homo sapiens, UniProt P58181); assay: Dose-response test of single lactones on OR10A3 (luciferase)
# T5 construct: Class II OR library members with modified C-terminal domains; expressed in transfected cells
# T5 sequence (P58181 with tags, fused parts or gaps): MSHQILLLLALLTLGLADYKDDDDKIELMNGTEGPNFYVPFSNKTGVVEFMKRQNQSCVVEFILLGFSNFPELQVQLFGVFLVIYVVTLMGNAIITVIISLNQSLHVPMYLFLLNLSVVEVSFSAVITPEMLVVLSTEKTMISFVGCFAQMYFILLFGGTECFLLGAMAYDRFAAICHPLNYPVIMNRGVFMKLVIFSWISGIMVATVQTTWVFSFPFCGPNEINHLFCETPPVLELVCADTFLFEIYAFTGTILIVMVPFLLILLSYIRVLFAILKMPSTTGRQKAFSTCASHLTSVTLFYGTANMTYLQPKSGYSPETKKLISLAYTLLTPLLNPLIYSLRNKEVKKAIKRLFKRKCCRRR
# Procedure: as §1
# [6] = biological target: T6, OR10A6(A117V, V140G, L287P) (Homo sapiens, UniProt Q8NH74, A117V/L287P/V140G); assay: Dose-response test of single lactones on OR10A6(A117V, V140G, L287P)
# T6 construct: expressed in transfected cells; transient transfection of pcDNA3.1(+) OR plasmid
# T6 sequence (Q8NH74 with tags, fused parts or gaps A117V/V140G/L287P limits assumed): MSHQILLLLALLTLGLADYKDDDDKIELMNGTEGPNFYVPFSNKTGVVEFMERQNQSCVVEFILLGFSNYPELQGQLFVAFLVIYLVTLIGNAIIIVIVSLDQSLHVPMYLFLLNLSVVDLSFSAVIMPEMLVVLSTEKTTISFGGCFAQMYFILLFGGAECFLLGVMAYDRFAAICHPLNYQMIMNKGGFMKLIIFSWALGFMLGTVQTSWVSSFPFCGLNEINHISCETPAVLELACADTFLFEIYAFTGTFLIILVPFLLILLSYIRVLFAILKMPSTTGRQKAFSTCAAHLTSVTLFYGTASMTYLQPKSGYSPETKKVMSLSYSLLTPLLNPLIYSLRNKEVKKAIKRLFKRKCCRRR
# Procedure: as §1
# [7] = biological target: T7, OR2J2 (Homo sapiens, UniProt O76002, A146V/A218T/A302I/G300K/H297E/H74Y); assay: Dose-response test of single lactones on OR2J2
# T7 construct: expressed in transfected cells; transient transfection of pcDNA3.1(+) OR plasmid
# T7 sequence (O76002 with tags, fused parts or gaps H74Y/A146V/A218T/H297E/G300K/A302I limits assumed): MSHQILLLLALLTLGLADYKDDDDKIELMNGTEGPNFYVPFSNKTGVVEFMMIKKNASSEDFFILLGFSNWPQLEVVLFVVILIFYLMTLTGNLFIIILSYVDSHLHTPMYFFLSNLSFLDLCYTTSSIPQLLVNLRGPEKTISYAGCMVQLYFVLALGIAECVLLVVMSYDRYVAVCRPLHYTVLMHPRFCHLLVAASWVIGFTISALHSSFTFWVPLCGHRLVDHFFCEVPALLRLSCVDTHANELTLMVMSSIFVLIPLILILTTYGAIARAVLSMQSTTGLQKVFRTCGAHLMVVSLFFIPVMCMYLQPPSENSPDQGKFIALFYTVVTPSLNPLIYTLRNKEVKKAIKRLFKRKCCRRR
# Procedure: as §1
# [8] = biological target: T8, OR2AP1 (Homo sapiens, UniProt Q8NGE2); assay: Dose-response test of single lactones on OR2AP1
# T8 construct: expressed in transfected cells; transient transfection of pcDNA3.1(+) OR plasmid
# T8 sequence (Q8NGE2 with tags, fused parts or gaps limits assumed): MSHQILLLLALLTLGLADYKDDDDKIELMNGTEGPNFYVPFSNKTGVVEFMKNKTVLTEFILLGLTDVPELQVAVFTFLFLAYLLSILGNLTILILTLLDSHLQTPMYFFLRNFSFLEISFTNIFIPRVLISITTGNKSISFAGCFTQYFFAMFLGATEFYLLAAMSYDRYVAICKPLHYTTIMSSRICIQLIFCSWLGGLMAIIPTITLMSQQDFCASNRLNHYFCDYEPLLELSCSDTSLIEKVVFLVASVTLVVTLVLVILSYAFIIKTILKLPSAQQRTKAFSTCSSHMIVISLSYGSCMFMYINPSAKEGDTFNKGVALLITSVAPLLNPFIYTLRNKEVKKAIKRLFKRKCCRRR
# Procedure: as §1
smiles,measurement,setting,value
O=C1CCCCCCCC=CCCCCCCO1 [Ambrettolide],Comments on efficacy,[1],1.5
same,Detection threshold; concentration for 2-fold induction,[1]; changed C-term. SEQ ID NO: 86,0.26 µM
same,Fold-improvement potency,[1]; changed C-term. vs wild-type,1.5
same,Fold-improvement threshold,[1]; changed C-term. vs wild-type,5.2
same,Detection threshold; concentration for 2-fold induction,[1]; wild-type,1.33 µM
CC(=O)/C=C/C1=C(C)CCCC1(C)C [Beta-ionone],Comments on efficacy,[2],4-fold lower
same,Detection threshold; concentration for 2-fold induction,[2]; changed C-term. SEQ ID NO: 86,3.2 µM
same,Fold-improvement potency,[2]; changed C-term. vs wild-type,1.8
same,Fold-improvement threshold,[2]; changed C-term. vs wild-type,5.9
same,Detection threshold; concentration for 2-fold induction,[2]; wild-type,19.1 µM
same,EC50,[2]; wild-type,5.5 µM
Cc1ccc2c(c1)OCC(=O)CO2 [Calone],Comments on efficacy,[3],3-fold lower
same,Detection threshold; concentration for 2-fold induction,[3]; changed C-term. SEQ ID NO: 86,24.3 µM
same,Fold-improvement threshold,[3]; changed C-term. vs wild-type,2.5
same,Fold-improvement potency,"[3]; changed C-term. vs wild-type, higher EC50 due to much higher efficacy of optimized C-terminus",0.7 *
same,Detection threshold; concentration for 2-fold induction,[3]; wild-type,60.1 µM
CCCCCC1CCCC(=O)O1 (stereo not drawn) [Decalactone delta],EC2 (concentration for 2-fold luciferase induction),[4],31.73 µM
same,"EC10, concentration for 10-fold OR activation",[5],2.10 μM
same,EC2 (concentration for 2-fold luciferase induction),[6],5.31 µM
same,EC2 (concentration for 2-fold luciferase induction),[7],98.89 µM
CCCCCCC1CCC(=O)O1 (stereo not drawn) [Decalactone gamma],EC2 (concentration for 2-fold luciferase induction),[4],3.63 µM
same,"EC10, concentration for 10-fold OR activation",[5],0.84 μM
same,EC2 (concentration for 2-fold luciferase induction),[6],1.62 µM
same,EC2 (concentration for 2-fold luciferase induction),[7],3.27 µM
same,EC2 (concentration for 2-fold luciferase induction),[8],33.66 µM
CCCCCCCC1CCCC(=O)O1 (stereo not drawn) [Dodecalactone delta],EC2 (concentration for 2-fold luciferase induction),[4],31.38 µM
same,"EC10, concentration for 10-fold OR activation",[5],2.59 μM
same,EC2 (concentration for 2-fold luciferase induction),[6],1.11 µM
same,EC2 (concentration for 2-fold luciferase induction),[7],35.12 µM
same,EC2 (concentration for 2-fold luciferase induction),[8],15.76 µM
